Two molecules from patent US20070117203A1, “Modulation of stem and progenitor cell growth by oscillatory fluid flow” (priority 2005, published 2007) can be followed below.

In the assay the test system is Marrow Stromal Cells (MSCs). Nature of the assay: Intracellular calcium response of MSCs to oscillatory fluid flow in the presence of calcium channel blockers. The following applies: control 67.1±11.2. In general terms: Calcium flux is commonly read through the fluorescence of an indicator in the cells.

Protocol: Calcium Imaging: Intracellular levels of Ca^2+ were quantified using a ratiometric imaging technique with the Ca^2+ sensitive dye Fura-2 Acetoxymethyl ester (Fura-2 AM). […] The ratio of the emission intensities F340/F380 is a quantitative measurement of intracellular calcium [Ca^2+]i.
Cells were cultured on UV transparent quartz slides for 3 days. Prior to exposure to OFF, cells were washed with PBS, incubated with 10 μM Fura-2 AM in A-MEM and 2% FBS for 30 min at 37° C., and then washed again with PBS. Following Fura-2 loading, the slides were mounted in a parallel plate flow chamber, and then fixed to the stage of a Nikon TE300 epi-fluorescent microscope (Technical Instruments SF, Burlingame, Calif.). The setup was left undisturbed for 30 min, during which the cells were perfused with media at 0.05 ml/min. Cells were then subjected to 3 minutes of OFF at 1 Hz with peak shear stress of 20 dynes/cm^2. […] Ratio images were recorded and analyzed using image analysis software (Metafluor; Universal Imaging, West Chester, Pa.). […]
Data analysis: Calcium imaging data was analyzed using the Rainflow cycle counting numerical procedure. This method identifies oscillations in the time history data and is used to quantify [Ca^2+]i responses from background noise. Calcium imaging data is expressed as the fraction of cells responding i SE and mean change in [Ca^2+]i±SE. […]

Consider `C/C=C(/C)C(=O)O[C@H]1C(C)=C2[C@H]([C@@H]1OC(=O)CCCCCCC)[C@@](C)(OC(C)=O)C[C@H](OC(=O)CCC)[C@@]1(O)[C@H]2OC(=O)[C@@]1(C)O` [Thapsigargin], for which the “percentage of cells that responded to OFF with a change in intracellular calcium” value (50 nM, empties intracellular calcium stores, significant decrease (p<0.05)) is given as 0±0%.

With `[Cl][Gd]([Cl])[Cl]` [gadolinium chloride], where the note is “10 μM, stretch activated channel blocker, not different from control”, the “percentage of cells that responded to OFF with a change in intracellular calcium” value amounted to 61.1±14.7%.
